IC50 data for 15 compounds are collected here from US20120149700A1, “2-CYANOPHENYL FUSED HETEROCYCLIC COMPOUNDS, AND COMPOSTIONS AND USES THEREOF” (priority 2007, published 2012).

One assay concerns the target T1, P2X2/3 (Homo sapiens, UniProt P56373+Q9UBL9).
T1 construct: expressed in transfected cells; host or cells: cell line stably expressing P2X2, stably transfected with P2X3 (e.g. HEK293 or 1321N1)
T1 sequence (Q9UBL9 1-471): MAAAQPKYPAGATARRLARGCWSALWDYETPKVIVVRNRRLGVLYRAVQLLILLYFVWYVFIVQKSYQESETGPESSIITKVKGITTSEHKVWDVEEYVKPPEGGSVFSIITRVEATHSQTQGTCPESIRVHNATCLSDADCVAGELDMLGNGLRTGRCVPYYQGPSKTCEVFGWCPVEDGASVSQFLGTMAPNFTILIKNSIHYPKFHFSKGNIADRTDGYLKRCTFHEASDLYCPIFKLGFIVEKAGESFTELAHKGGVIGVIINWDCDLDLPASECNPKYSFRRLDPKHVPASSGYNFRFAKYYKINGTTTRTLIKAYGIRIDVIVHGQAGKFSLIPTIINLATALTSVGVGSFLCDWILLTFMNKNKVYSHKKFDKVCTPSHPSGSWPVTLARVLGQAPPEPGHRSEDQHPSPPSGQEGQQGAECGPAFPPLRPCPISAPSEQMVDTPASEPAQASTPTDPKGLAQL
T1 sequence (P56373 1-397): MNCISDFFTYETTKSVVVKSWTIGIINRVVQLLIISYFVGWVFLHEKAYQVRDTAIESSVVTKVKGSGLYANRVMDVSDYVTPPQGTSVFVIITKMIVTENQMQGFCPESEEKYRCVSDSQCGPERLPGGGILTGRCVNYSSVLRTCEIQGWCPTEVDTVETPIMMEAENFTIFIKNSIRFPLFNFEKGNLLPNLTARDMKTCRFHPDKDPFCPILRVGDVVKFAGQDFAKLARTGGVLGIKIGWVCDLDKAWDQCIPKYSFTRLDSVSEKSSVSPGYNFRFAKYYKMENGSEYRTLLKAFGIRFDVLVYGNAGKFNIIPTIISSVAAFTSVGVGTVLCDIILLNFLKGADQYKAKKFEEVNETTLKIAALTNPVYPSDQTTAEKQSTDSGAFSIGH
Put plainly: Calcium uptake assay (P2X antagonist assay, inhibition of agonist-induced calcium influx), P2X2/3. Format: cell-based. As to conditions: inhibition of agonist-induced calcium influx in cells expressing the receptor. An excerpt:
(§1) The human P2X2/3 chimera clone is created as described by Neelands et al, and then cloned into an expression vector as above. Receptors are expressed in cells (e.g., HEK293 or 1321N1 (obtained from the ECACC)) via transient transfection using standard lipid mediated transfection, or by creation of stable transfectants for each receptor. For expression of the P2X2/3 heteromeric receptor, the P2X3 expression vector is stably transfected into a cell line already stably expressing P2X2. P2X2/3 heteromer function is isolated using pharmacological methods. Cell lines are maintained in DMEM+5% Glutamax, the appropriate level of selective antibiotic, and 10% heat inactivated FBS.
(§2) Functional activity of compounds at the P2X receptor is determined by measuring their ability to inhibit agonist-induced calcium influx. Compounds are tested for antagonist activity against the P2X2/3 chimera, the P2X3 homomer, or the P2X2/3 heteromer. At the start of each screening day, the agonist EC50 is determined. Compound % inhibition or IC50s are subsequently determined using a pre-determined agonist concentration (EC50-90 depending on cell line) as a stimulus. The agonists used are αβMeATP, ATP, or other ATP analogs. Compounds may be tested at concentrations ranging from 1 pM to 10 μM.
(§3) To test for antagonist activity, cells expressing the appropriate receptor are seeded onto 96 or 384 well plates 18-24 hours prior to assay. […] Plates are incubated at 37° C. and then equilibrated at room temperature. Antagonism of agonist-induced calcium influx is measured using a fluorescent imaging plate reader (e.g. FLIPR^TETRA, Molecular Devices, Sunnyvale, Calif.). The assay comprises two stages: a pre-treatment phase followed by a treatment phase. Compounds may be tested as follows: For the pre-treatment phase, 50 μL of 3× concentration of test compound in HBSS is added to cells containing 100 μL of dye loading media to achieve a final concentration of 1× test compound. For the treatment phase, at a set interval after pre-treatment (1-30 minutes), 50 μl, of 1× test compound plus 4× agonist solution is added, resulting in a final concentration of 1× compound and 1× agonist. […] Responses are measured as (peak fluorescence after agonist addition) minus (baseline fluorescence prior to treatment). Percent inhibition is calculated as follows: […]
(§4) IC50 values are determined by analyzing dose response data in a 4 parameter logistic fit using GraphPad Prizm.

In the next assay the target is T2, P2X3 (Homo sapiens, UniProt P56373).
T2 construct: expressed in transfected cells; host or cells: e.g. HEK293 or 1321N1
T2 sequence (P56373 1-397): T1 sequence (P56373 1-397)
Put plainly: Calcium uptake assay (P2X antagonist assay, inhibition of agonist-induced calcium influx), P2X3. As to conditions: inhibition of agonist-induced calcium influx in cells expressing the receptor. Format: cell-based.
Text: as §1, §2, §3, §4

Each structure is given as a SMILES string.

Consider `Cc1ccc(N2CCc3ncnc(NCc4ccc(C(F)(F)F)nc4)c3C2)c(C#N)c1` [Compound 1, 5-Methyl-2-{4-[(6-trifluoromethyl-pyridin-3-ylmethyl)-amino]-7,8-dihydro-5H-pyrido[4,3-d]pyrimidin-6-yl}-benzonitrile], for which the 50% inhibitory concentration (IC50) at P2X2/3 came out at 92 nM; on P2X3, 19 nM.

Regarding `COc1ccc([C@@H](CC(=O)O)Nc2ncnc3c2CN(c2ccc(Cl)cc2C#N)CC3)cn1` [Compound 19, (R)-3-[6-(4-Chloro-2-cyano-phenyl)-5,6,7,8-tetrahydro-pyrido[4,3-d]pyrimidin-4-ylamino]-3-(6-methoxy-pyridin-3-yl)-propionic acid], the half-inhibitory concentration (IC50) at P2X2/3 was > 10000 nM; at P2X3 it was 1380 nM.

Consider `Cc1ccc(N2CCc3ncnc(NCc4ccc(Cl)c(-n5cnnc5)c4)c3C2)c(C#N)c1` [Compound 50, 2-[4-(4-Chloro-3-[1,2,4]triazol-4-yl-benzylamino)-7,8-dihydro-5H-pyrido[4,3-d]pyrimidin-6-yl]-5-methyl-benzonitrile], for which the IC50 on P2X2/3 was determined as 63 nM; on P2X3 it was 31 nM.

On to `Cc1ccc(N2CCc3ncnc(NCc4cccc(C#N)c4)c3C2)c(C#N)c1` [Compound 36, 2-[4-(3-Cyano-benzylamino)-7,8-dihydro-5H-pyrido[4,3-d]pyrimidin-6-yl]-5-methyl-benzonitrile], for which the IC50 at P2X2/3 came out at 1090 nM; at P2X3, 183 nM.

Regarding `Cc1ccc(N2CCc3ncnc(NCc4ccc(C)c(C#N)c4)c3C2)c(C#N)c1` [Compound 56], the IC50 came to 82 nM at P2X2/3 and 63 nM on P2X3.

On to `N#Cc1ccccc1N1CCc2ncnc(NCc3ccc(C(F)(F)F)nc3)c2C1` [Compound 10, 2-{4-[(6-Trifluoromethyl-pyridin-3-ylmethyl)-amino]-7,8-dihydro-5H-pyrido[4,3-d]pyrimidin-6-yl}-benzonitrile], for which the IC50 on P2X2/3 was determined as 1810 nM; at P2X3 it was 63 nM.

In the case of `Cc1ccc(N2CCc3ncnc(NCc4ccc(C)c(F)c4)c3C2)c(C#N)c1` [Compound 48, 2-[4-(3-Fluoro-4-methyl-benzylamino)-7,8-dihydro-5H-pyrido[4,3-d]pyrimidin-6-yl]-5-methyl-benzonitrile], the IC50 at P2X2/3 worked out at 124 nM; at P2X3 it was 89 nM.

Turning to `Cc1ccc(N2CCc3ncnc(NCc4ccccn4)c3C2)c(C#N)c1` [Compound 29, 5-Methyl-2-{4-[(pyridin-2-ylmethyl)-amino]-7,8-dihydro-5H-pyrido[4,3-d]pyrimidin-6-yl}-benzonitrile], the 50% inhibitory concentration (IC50) on P2X2/3 turned out to be 1670 nM; at P2X3, 196 nM.

In the case of `Cc1ccc(N2CCc3ncnc(N[C@H](CO)c4ccc(C(F)(F)F)nc4)c3C2)c(C#N)c1` [Compound 46, 2-{4-[(S)-2-Hydroxy-1-(6-trifluoromethyl-pyridin-3-yl)-ethylamino]-7,8-dihydro-5H-pyrido[4,3-d]pyrimidin-6-yl}-5-methyl-benzonitrile], the IC50 on P2X2/3 was 71 nM; at P2X3 it was 21 nM.

Regarding `Cc1ccc(N2CCc3ncnc(NCc4ccc(C)c(-n5cncn5)c4)c3C2)c(C#N)c1` [Compound 40, 5-Methyl-2-{4-(4-methyl-3-[1,2,4]triazol-1-yl-benzylamino)-7,8-dihydro-5H-pyrido[4,3-d]pyrimidin-6-yl}-benzonitrile], the IC50 at P2X2/3 amounted to 92 nM; at P2X3, 21 nM.

Consider `Cc1ccc(N2CCc3ncnc(N[C@@H](CCO)c4ccc(C(F)(F)F)nc4)c3C2)c(C#N)c1` [Compound 65, 2-{4-[(S)-3-Hydroxy-1-(6-trifluoromethyl-pyridin-3-yl)-propylamino]-7,8-dihydro-5H-pyrido[4,3-d]pyrimidin-6-yl}-5-methyl-benzonitrile], for which the IC50 was 5420 nM on P2X2/3 and 806 nM at P2X3.

As for `Cc1ccc(N2CCc3ncnc(NCc4ccc(C)c(I)c4)c3C2)c(C#N)c1` [Compound 55, 2-[4-(3-Iodo-4-methyl-benzylamino)-7,8-dihydro-5H-pyrido[4,3-d]pyrimidin-6-yl]-5-methyl-benzonitrile], the 50% inhibitory concentration (IC50) on P2X2/3 was found to be 1300 nM; on P2X3, 512 nM.

Consider `Cc1ccc(N2CCc3ncnc(NCc4cccc(-n5cnnc5)c4)c3C2)c(C#N)c1` [Compound 53, 5-Methyl-2-[4-(3-[1,2,4]triazol-4-yl-benzylamino)-7,8-dihydro-5H-pyrido[4,3-d]pyrimidin-6-yl]-benzonitrile], for which the values for the IC50 on P2X2/3 and at P2X3 were 324 nM and 65 nM, respectively.

On to `Cc1ccc(N2CCc3ncnc(NCc4ccc(C)c(S(C)(=O)=O)c4)c3C2)c(C#N)c1` [Compound 59, 2-{4-(3-Methanesulfonyl-4-methyl-benzylamino)-7,8-dihydro-5H-pyrido[4,3-d]pyrimidin-6-yl}-5-methyl-benzonitrile], for which the IC50 on P2X2/3 amounted to 55 nM; at P2X3, 16 nM.

In the case of `Cc1ccc(N2CCc3ncnc(NCc4ccc5c(c4)OCO5)c3C2)c(C#N)c1` [Compound 82, 2-(4-(Benzo[d][1,3]dioxol-5-ylmethylamino)-7,8-dihydropyrido[4,3-d]pyrimidin-6(5H)-yl)-5-methylbenzonitrile], the results for the IC50 on P2X2/3 and on P2X3 were 310 nM and 56 nM, respectively.
